We go through 18 molecules from patent US12291518B2, “Thyroid hormone receptor agonists and use thereof” (Eccogene Inc., priority 2020, dated 2025).

The target of one experiment is T1, THR alpha-LBD (Homo sapiens, UniProt P10827).
T1 construct: except that THR alpha-LBD of a final concentration 0.25 nM was used; purchased Invitrogen PV4687
Nature of the experiment: THR-α Coactivator Peptide Recruitment Assay (LanthaScreen TR-FRET). It is filed as biochemical. As to conditions: TR-FRET coactivator recruitment, THR alpha-LBD 0.25 nM; for EC50: read-out: THRα EC50. The method, boiled down: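 TR-FRET coactivator recruitment with THR alpha-LBD at 0.25 nM final, Fluorescein-SRC2-2 peptide 0.1 nM and Tb-labeled anti-GST antibody 2 nM; 2 h incubation at room temperature. 520/495 nm emission ratio fitted to a four-parameter sigmoidal curve to give EC50.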

Another experiment addresses T2, THR beta-LBD (Homo sapiens, UniProt P10828).
T2 construct: THR beta-LBD (the final concentration is 0.5 nM) was added to the 384-well assay plate; purchased Invitrogen PV4686
T2 sequence (P10828 217-461 limits assumed): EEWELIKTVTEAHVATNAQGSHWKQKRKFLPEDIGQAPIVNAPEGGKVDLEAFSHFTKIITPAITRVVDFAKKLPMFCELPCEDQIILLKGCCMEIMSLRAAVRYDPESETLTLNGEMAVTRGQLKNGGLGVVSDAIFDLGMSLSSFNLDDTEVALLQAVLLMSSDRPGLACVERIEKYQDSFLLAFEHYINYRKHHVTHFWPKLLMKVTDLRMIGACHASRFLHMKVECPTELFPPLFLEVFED
Nature of the experiment: THR-β Coactivator Peptide Recruitment Assay (LanthaScreen TR-FRET). It counts as biochemical. As to conditions: TR-FRET coactivator recruitment, THR beta-LBD 0.5 nM; for EC50: read-out: THRβ EC50. In outline: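 Agonist-driven coactivator recruitment read as a 520/495 nm TR-FRET emission ratio after 2 h at room temperature. Final concentrations: THR beta-LBD 0.5 nM, fluorescein-SRC2-2 peptide 0.1 nM, terbium anti-GST antibody 2 nM. EC50 from four-parameter dose-response fitting.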

T1 sequence (P10827 163-410 isoform P10827-2 limits assumed, other chains not shown): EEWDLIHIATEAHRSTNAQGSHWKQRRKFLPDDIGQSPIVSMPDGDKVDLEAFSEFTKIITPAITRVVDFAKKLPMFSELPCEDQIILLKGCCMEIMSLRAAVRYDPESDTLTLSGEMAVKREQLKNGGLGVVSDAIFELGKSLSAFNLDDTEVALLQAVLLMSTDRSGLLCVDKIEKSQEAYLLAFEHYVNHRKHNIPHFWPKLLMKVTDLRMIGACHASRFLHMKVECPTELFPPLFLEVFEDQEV

Turning to `C[C@]1(O)C[C@@H](NS(=O)(=O)c2cc(Oc3c(Cl)cc(-n4nc(C(F)F)c(=O)[nH]c4=O)cc3Cl)ncc2O)C1` [Compound 138, 2-(2,6-dichloro-4-(6-(difluoromethyl)-3,5-dioxo-4,5-dihydro-1,2,4-triazin-2(3H)-yl)phenoxy)-5-hydroxy-N-((1s,3s)-3-hydroxy-3-methylcyclobutyl)pyridine-4-sulfonamide], at THR alpha-LBD, the “THRα Emax” value is on record as “C (<40)” and the EC50 was more than 1000 nM. Besides, on THR beta-LBD, the “THRβ Emax” value is “C (<75)” and the EC50 is more than 100 nM.

With `CO[C@H]1C[C@H](NS(=O)(=O)c2cc(Oc3c(Cl)cc(-n4nc(C(F)F)c(=O)[nH]c4=O)cc3Cl)ncc2O)C1` [Compound 139, 2-(2,6-dichloro-4-(6-(difluoromethyl)-3,5-dioxo-4,5-dihydro-1,2,4-triazin-2(3H)-yl)phenoxy)-5-hydroxy-N-((1r,3r)-3-methoxycyclobutyl)pyridine-4-sulfonamide], at THR alpha-LBD, the “THRα Emax” value is “B (40~85)” and the EC50 lay in the range of 200 to 1000 nM. In addition, at THR beta-LBD, the “THRβ Emax” value was “B (75~90)” and the EC50 was in the range of 2 to 20 nM.

For `CO[C@H]1C[C@@H](NS(=O)(=O)c2cc(Oc3c(Cl)cc(-n4nc(C(F)F)c(=O)[nH]c4=O)cc3Cl)ncc2O)C1` [Compound 140, 2-(2,6-dichloro-4-(6-(difluoromethyl)-3,5-dioxo-4,5-dihydro-1,2,4-triazin-2(3H)-yl)phenoxy)-5-hydroxy-N-((1s,3s)-3-methoxycyclobutyl)pyridine-4-sulfonamide], on THR alpha-LBD, the “THRα Emax” value was “B (40~85)” and the EC50 is 200 to 1000 nM. Also, at THR beta-LBD, the “THRβ Emax” value was “B (75~90)” and the EC50 was 20 to 100 nM.

In the case of `O=c1[nH]c(=O)n(-c2cc(Cl)c(Oc3cc(S(=O)(=O)N4CC[C@@H](O)C4)c(O)cn3)c(Cl)c2)nc1C(F)F` [Compound 141, (R)-2-(3,5-dichloro-4-((5-hydroxy-4-((3-hydroxypyrrolidin-1-yl)sulfonyl)pyridin-2-yl)oxy)phenyl)-6-(difluoromethyl)-1,2,4-triazine-3,5(2H,4H)-dione], at THR alpha-LBD, the “THRα Emax” value is given as “B (40~85)” and the EC50 is 2 to 200 nM. Besides, on THR beta-LBD, the “THRβ Emax” value is recorded as “B (75~90)” and the EC50 was in the range of 2 to 20 nM.

With `O=c1[nH]c(=O)n(-c2cc(Cl)c(Oc3cc(S(=O)(=O)NC45CC(O)(C4)C5)c(O)cn3)c(Cl)c2)nc1C(F)F` [Compound 142, 2-(2,6-dichloro-4-(6-(difluoromethyl)-3,5-dioxo-4,5-dihydro-1,2,4-triazin-2(3H)-yl)phenoxy)-5-hydroxy-N-(3-hydroxybicyclo[1.1.1]pentan-1-yl)pyridine-4-sulfonamide], on THR alpha-LBD, the “THRα Emax” value was “B (40~85)” and the EC50 was in the range of 200 to 1000 nM. Also, at THR beta-LBD, the “THRβ Emax” value is recorded as “B (75~90)” and the concentration giving a half-maximal response (EC50) is 20 to 100 nM.

Turning to `O=c1[nH]c(=O)n(-c2cc(Cl)c(Oc3cc(S(=O)(=O)N[C@H]4CC[C@H](O)CC4)c(O)cn3)c(Cl)c2)nc1C(F)F` [Compound 143, 2-(2,6-dichloro-4-(6-(difluoromethyl)-3,5-dioxo-4,5-dihydro-1,2,4-triazin-2(3H)-yl)phenoxy)-5-hydroxy-N-((1r,4r)-4-hydroxycyclohexyl)pyridine-4-sulfonamide], on THR alpha-LBD, the “THRα Emax” value is listed as “B (40~85)” and the EC50 was in the range of 200 to 1000 nM. Further, at THR beta-LBD, the “THRβ Emax” value is “B (75~90)” and the EC50 lay in the range of 2 to 20 nM.

Turning to `O=c1[nH]c(=O)n(-c2cc(Cl)c(Oc3cc(S(=O)(=O)N[C@H]4CC[C@@H](O)CC4)c(O)cn3)c(Cl)c2)nc1C(F)F` [Compound 144, 2-(2,6-dichloro-4-(6-(difluoromethyl)-3,5-dioxo-4,5-dihydro-1,2,4-triazin-2(3H)-yl)phenoxy)-5-hydroxy-N-((1s,4s)-4-hydroxycyclohexyl)pyridine-4-sulfonamide], on THR alpha-LBD, the “THRα Emax” value was “C (<40)” and the EC50 was more than 1000 nM. Also, at THR beta-LBD, the “THRβ Emax” value is recorded as “C (<75)” and the EC50 lay within 20 to 100 nM.

For `O=C(NC1CCC1)c1cc(Oc2c(Cl)cc(-n3nc(C(F)F)c(=O)[nH]c3=O)cc2Cl)ncc1O` [Compound 145, N-cyclobutyl-2-[2,6-dichloro-4-[6-(difluoromethyl)-3,5-dioxo-1,2,4-triazin-2-yl]phenoxy]-5-hydroxy-pyridine-4-carboxamide], at THR alpha-LBD, the “THRα Emax” value is given as “B (40~85)” and the EC50 was in the range of 2 to 200 nM. On THR beta-LBD, the “THRβ Emax” value was “B (75~90)” and the concentration for a half-maximal effect (EC50) lay in the range of 2 to 20 nM.

As for `CS(=O)(=O)c1cc(Oc2c(Cl)cc(-n3nc(C(F)F)c(=O)[nH]c3=O)cc2Cl)ncc1O` [Compound 146, 2-[3,5-dichloro-4-[(5-hydroxy-4-methylsulfonyl-2-pyridyl)oxy]phenyl]-6-(difluoromethyl)-1,2,4-triazine-3,5-dione], on THR alpha-LBD, the “THRα Emax” value was “A (85~110)” and the EC50 was in the range of 2 to 200 nM. For the same molecule, on THR beta-LBD, the “THRβ Emax” value was “A (90~110)” and the EC50 was 2 to 20 nM.

As to `CS(=O)(=O)c1cc(Oc2c(Cl)cc(-n3nc(C#N)c(=O)[nH]c3=O)cc2Cl)ncc1O` [Compound 147, 2-[3,5-dichloro-4-[(5-hydroxy-4-methylsulfonyl-2-pyridyl)oxy]phenyl]-3,5-dioxo-1,2,4-triazine-6-carbonitrile], on THR alpha-LBD, the “THRα Emax” value is on record as “B (40~85)” and the EC50 lay in the range of 200 to 1000 nM. Moreover, at THR beta-LBD, the “THRβ Emax” value was “A (90~110)” and the EC50 fell in the range of 20 to 100 nM.

Regarding `O=c1[nH]c(=O)n(-c2cc(Cl)c(Oc3cc(S(=O)(=O)NC4CS(=O)(=O)C4)c(O)cn3)c(Cl)c2)nc1C(F)F` [Compound 148, 2-[2,6-dichloro-4-[6-(difluoromethyl)-3,5-dioxo-1,2,4-triazin-2-yl]-phenoxy]-N-(1,1-dioxothietan-3-yl)-5-hydroxy-pyridine-4-sulfonamide], at THR alpha-LBD, the “THRα Emax” value is “A (85~110)” and the EC50 was 2 to 200 nM. Moreover, on THR beta-LBD, the “THRβ Emax” value is given as “B (75~90)” and the EC50 lay within 2 to 20 nM.

`N#Cc1cc(O)c(S(=O)(=O)N[C@H]2C[C@H](O)C2)cc1Oc1c(Cl)cc(-n2nc(C(F)F)c(=O)[nH]c2=O)cc1Cl` [Compound 149, 4-cyano-5-[2,6-dichloro-4-[6-(difluoromethyl)-3,5-dioxo-1,2,4-triazin-2-yl]phenoxy]-2-hydroxy-N-(3-hydroxycyclobutyl)benzenesulfonamide]: at THR alpha-LBD, the “THRα Emax” value is “C (<40)” and the EC50 was more than 1000 nM. Besides, at THR beta-LBD, the “THRβ Emax” value was “C (<75)” and the EC50 is more than 100 nM.

For `N#Cc1nn(-c2cc(Cl)c(Oc3cc(S(=O)(=O)NC4CCC4)c(O)cn3)c(Cl)c2)c(=O)[nH]c1=O` [Compound 150], at THR alpha-LBD, the “THRα Emax” value was “A (85~110)” and the EC50 fell in the range of 2 to 200 nM. Besides, on THR beta-LBD, the “THRβ Emax” value is “A (90~110)” and the EC50 fell in the range of 2 to 20 nM.

As to `CCS(=O)(=O)c1cc(Oc2c(Cl)cc(-n3nc(C(F)F)c(=O)[nH]c3=O)cc2Cl)ncc1O` [Compound 151, 2-[3,5-dichloro-4-[(4-ethylsulfonyl-5-hydroxy-2-pyridyl)oxy]phenyl]-6-(difluoromethyl)-1,2,4-triazine-3,5-dione], at THR alpha-LBD, the “THRα Emax” value is reported as “A (85~110)” and the EC50 is 2 to 200 nM. Also, on THR beta-LBD, the “THRβ Emax” value is recorded as “A (90~110)” and the EC50 is less than 2 nM.

As for `O=c1[nH]c(=O)n(-c2cc(Cl)c(Cc3ccc(O)c(S(=O)(=O)NC4CS(=O)(=O)C4)c3)c(Cl)c2)nc1C(F)F` [Compound 152, 5-[[2,6-dichloro-4-[6-(difluoromethyl)-3,5-dioxo-1,2,4-triazin-2-yl]phenyl]methyl]-N-(1,1-dioxothietan-3-yl)-2-hydroxy-benzenesulfonamide], at THR alpha-LBD, the “THRα Emax” value is listed as “A (85~110)” and the EC50 is less than 2 nM. Also, on THR beta-LBD, the “THRβ Emax” value is “A (90~110)” and the 50% effective concentration (EC50) was less than 2 nM.

Take `O=c1[nH]c(=O)n(-c2cc(Cl)c(Oc3cc(S(=O)(=O)C4CCC4)c(O)cn3)c(Cl)c2)nc1C(F)F` [Compound 153, 2-[3,5-dichloro-4-[(4-cyclobutylsulfonyl-5-hydroxy-2-pyridyl)-oxy]phenyl]-6-(difluoromethyl)-1,2,4-triazine-3,5-dione]: on THR alpha-LBD, the “THRα Emax” value is “A (85~110)” and the EC50 is 2 to 200 nM. Besides, on THR beta-LBD, the “THRβ Emax” value is “A (90~110)” and the EC50 is less than 2 nM.

For `CS(=O)(=O)Cc1cc(Oc2c(Cl)cc(-n3nc(C(F)F)c(=O)[nH]c3=O)cc2Cl)ncc1O` [Compound 154, 2-[3,5-dichloro-4-[[5-hydroxy-4-(methylsulfonylmethyl)-2-pyridyl]oxy]phenyl]-6-(difluoromethyl)-1,2,4-triazine-3,5-dione], on THR alpha-LBD, the “THRα Emax” value is “B (40~85)” and the concentration for a half-maximal effect (EC50) lay in the range of 200 to 1000 nM. Further, on THR beta-LBD, the “THRβ Emax” value is on record as “B (75~90)” and the EC50 fell in the range of 2 to 20 nM.

Turning to `O=c1[nH]c(=O)n(-c2cc(Cl)c(Cc3cc(S(=O)(=O)N[C@H]4C[C@H](O)C4)c(O)cn3)c(Cl)c2)nc1C(F)F` [Compound 156, 2-(2,6-dichloro-4-(6-(difluoromethyl)-3,5-dioxo-4,5-dihydro-1,2,4-triazin-2 (3H)-yl)benzyl)-5-hydroxy-N-((1r,3r)-3-hydroxycyclobutyl)pyridine-4-sulfonamide], on THR alpha-LBD, the “THRα Emax” value is recorded as “B (40~85)” and the concentration for a half-maximal effect (EC50) was more than 1000 nM. Also, on THR beta-LBD, the “THRβ Emax” value is on record as “A (90~110)” and the EC50 is 2 to 20 nM.
